In the supplement of paper PMC4862054:

Columns and labels:
Conditions in all cases: incubation time: 72 h
HCC1599 = experiment: normalised response (% of control), CellTiter-Glo; higher = more viable cells (100 = DMSO, 0 = benzethonium chloride kill control)
How it was run: (§1)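 For each plate, 0.1 % DMSO was set to 100 and a positive kill control to 0. Breast cancer cell lines (20 µl suspension) were seeded into 384-well plates already holding compound at 5 concentrations in 10-fold steps over a 10,000-fold range chosen per compound, and incubated for 72 h. CellTox Green fluorescence at 485/520 nm was read before CellTiter-Glo luminescence, which followed 10 min at room temperature. Each value is the normalised signal at one concentration.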

HCC1937 = experiment: as above
How it was run: as §1

SK-BR-3 = experiment: as above
How it was run: as §1

MDA-MB-468 = experiment: as above
How it was run: as §1

MCF-10A = experiment: as above
How it was run: as §1

HCC1143 [1] = experiment: as above
How it was run: as §1

CAL-120 = experiment: as above
How it was run: as §1

CAL-85-1 [2] = experiment: as above
How it was run: as §1

HDQ-P1 [3] = experiment: as above
How it was run: as §1

CAL-51 [4] = experiment: as above
How it was run: as §1

MFM-223 [5] = experiment: as above
How it was run: as §1

DU-4475 [6] = experiment: as above
How it was run: as §1

BT-474 = experiment: as above
How it was run: as §1

MDA-MB-231 = experiment: as above
How it was run: as §1

BT-549 = experiment: as above
How it was run: as §1

MDA-MB-453 [7] = experiment: as above
How it was run: as §1

CAL-148 [8] = experiment: as above
How it was run: as §1

MDA-MB-436 = experiment: as above
How it was run: as §1

Hs578T = experiment: as above
How it was run: as §1

HCC1143 [9] = experiment: normalised response (% of control), CellTox Green; higher = less cell death (100 = DMSO, 0 = benzethonium chloride kill control)
How it was run: as §1

CAL-51 [10] = experiment: as above
How it was run: as §1

MFM-223 [11] = experiment: as above
How it was run: as §1

CAL-148 [12] = experiment: as above
How it was run: as §1

CAL-85-1 [13] = experiment: normalised viability (% of control), CellTiter-Blue; higher = more viable cells (about 100 = DMSO control)
How it was run: (§2)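 Each value is normalised viability at a single listed concentration of the series. Breast cancer cell lines in 384-well plates were incubated 72 h with compound and read by CellTiter-Blue fluorescence at 560/590 nm, with vehicle set to 100 and a positive kill control to 0 on every plate.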

HDQ-P1 [14] = experiment: as above
How it was run: as §2

CAL-51 [15] = experiment: as above
How it was run: as §2

DU-4475 [16] = experiment: as above
How it was run: as §2

MDA-MB-453 [17] = experiment: as above
How it was run: as §2

CAL-148 [18] = experiment: as above
How it was run: as §2

Compound: NC1(c2ccc(-c3nc4ccn5c(=O)[nH]nc5c4cc3-c3ccccc3)cc2)CCC1 [MK-2206] (1000 nM)
- normalised response (HCC1599): 72.6%
- normalised response (HCC1937): 86%
- normalised response (SK-BR-3): 52.1%
- normalised response (MDA-MB-468): 83%
- normalised response (MCF-10A): 83.3%
- normalised response (HCC1143 [1]): 84%
- normalised response (CAL-120): 92.5%
- normalised response (CAL-85-1 [2]): 86.1%
- normalised response (HDQ-P1 [3]): 81.4%
- normalised response (CAL-51 [4]): 84.2%
- normalised response (MFM-223 [5]): 46.9%
- normalised response (DU-4475 [6]): 87.3%
- normalised response (BT-474): 95.4%
- normalised response (MDA-MB-231): 86.1%
- normalised response (BT-549): 69.3%
- normalised response (MDA-MB-453 [7]): 36.6%
- normalised response (CAL-148 [8]): 59.7%
- normalised response (MDA-MB-436): 98.2%
- normalised response (Hs578T): 87.2%
- normalised response (HCC1143 [9]): 131%
- normalised response (CAL-51 [10]): 98.1%
- normalised response (MFM-223 [11]): 95.9%
- normalised response (CAL-148 [12]): 11.1%
- normalised viability (CAL-85-1 [13]): 58.4%
- normalised viability (HDQ-P1 [14]): 86.4%
- normalised viability (CAL-51 [15]): 45.3%
- normalised viability (DU-4475 [16]): 53.5%
- normalised viability (MDA-MB-453 [17]): 11%
- normalised viability (CAL-148 [18]): 36.8%

Compound: O=C(c1cc(Cc2n[nH]c(=O)c3ccccc23)ccc1F)N1CCN(C(=O)C2CC2)CC1 [Olaparib] (10000 nM)
- normalised response (HCC1599): 95.3%
- normalised response (HCC1937): 91.6%
- normalised response (SK-BR-3): 78.7%
- normalised response (MDA-MB-468): 69.5%
- normalised response (MCF-10A): 92.8%
- normalised response (HCC1143 [1]): 87.3%
- normalised response (CAL-120): 82.3%
- normalised response (CAL-85-1 [2]): 87.5%
- normalised response (HDQ-P1 [3]): 87.8%
- normalised response (CAL-51 [4]): 66.1%
- normalised response (MFM-223 [5]): 88.5%
- normalised response (DU-4475 [6]): 85.7%
- normalised response (BT-474): 67.5%
- normalised response (MDA-MB-231): 77.2%
- normalised response (BT-549): 78.1%
- normalised response (MDA-MB-453 [7]): 144%
- normalised response (CAL-148 [8]): 64.6%
- normalised response (MDA-MB-436): 62.2%
- normalised response (Hs578T): 84.6%
- normalised response (HCC1143 [9]): 94.2%
- normalised response (CAL-51 [10]): 44.8%
- normalised response (MFM-223 [11]): 102%
- normalised response (CAL-148 [12]): 75.3%
- normalised viability (CAL-85-1 [13]): 80.7%
- normalised viability (HDQ-P1 [14]): 96.5%
- normalised viability (CAL-51 [15]): 39.3%
- normalised viability (DU-4475 [16]): 71.7%
- normalised viability (MDA-MB-453 [17]): 78.1%
- normalised viability (CAL-148 [18]): 56.1%

Compound: COc1cc2c(N3CCN(C(=O)Nc4ccc(OC(C)C)cc4)CC3)ncnc2cc1OCCCN1CCCCC1 [Tandutinib] (1000 nM)
- normalised response (HCC1599): 106%
- normalised response (HCC1937): 100%
- normalised response (SK-BR-3): 99%
- normalised response (MDA-MB-468): 99.7%
- normalised response (MCF-10A): 87%
- normalised response (HCC1143 [1]): 95.7%
- normalised response (CAL-120): 106%
- normalised response (CAL-85-1 [2]): 98%
- normalised response (HDQ-P1 [3]): 99.1%
- normalised response (CAL-51 [4]): 117%
- normalised response (MFM-223 [5]): 98.8%
- normalised response (DU-4475 [6]): 97.7%
- normalised response (BT-474): 97.7%
- normalised response (MDA-MB-231): 106%
- normalised response (BT-549): 102%
- normalised response (MDA-MB-453 [7]): 99.1%
- normalised response (CAL-148 [8]): 97.8%
- normalised response (MDA-MB-436): 109%
- normalised response (Hs578T): 92.3%
- normalised response (HCC1143 [9]): 114%
- normalised response (CAL-51 [10]): 98.5%
- normalised response (MFM-223 [11]): 89%
- normalised response (CAL-148 [12]): 93.5%
- normalised viability (CAL-85-1 [13]): 93%
- normalised viability (HDQ-P1 [14]): 128%
- normalised viability (CAL-51 [15]): 58%
- normalised viability (DU-4475 [16]): 58.4%
- normalised viability (MDA-MB-453 [17]): 92.9%
- normalised viability (CAL-148 [18]): 71.1%

Compound: C[C@@H](C(=O)O)c1ccc(-c2ccccc2)c(F)c1 [Tarenflurbil] (10000 nM)
- normalised response (HCC1599): 92.4%
- normalised response (HCC1937): 96.9%
- normalised response (SK-BR-3): 93.3%
- normalised response (MDA-MB-468): 91.5%
- normalised response (MCF-10A): 99.4%
- normalised response (HCC1143 [1]): 98.7%
- normalised response (CAL-120): 104%
- normalised response (CAL-85-1 [2]): 98.8%
- normalised response (HDQ-P1 [3]): 98.5%
- normalised response (CAL-51 [4]): 120%
- normalised response (MFM-223 [5]): 92.8%
- normalised response (DU-4475 [6]): 96.7%
- normalised response (BT-474): 95.2%
- normalised response (MDA-MB-231): 98.7%
- normalised response (BT-549): 99%
- normalised response (MDA-MB-453 [7]): 93.7%
- normalised response (CAL-148 [8]): 88.3%
- normalised response (MDA-MB-436): 108%
- normalised response (Hs578T): 97.5%
- normalised response (HCC1143 [9]): 121%
- normalised response (CAL-51 [10]): 113%
- normalised response (MFM-223 [11]): 92.6%
- normalised response (CAL-148 [12]): 101%
- normalised viability (CAL-85-1 [13]): 91.4%
- normalised viability (HDQ-P1 [14]): 129%
- normalised viability (CAL-51 [15]): 111%
- normalised viability (DU-4475 [16]): 95.1%
- normalised viability (MDA-MB-453 [17]): 84%
- normalised viability (CAL-148 [18]): 89.9%
